Test [1] deals with NQO1 specific enzyme activity in BEAS-2B cells (marker for NRF2 activation). In words: BEAS-2B NQO1 MTT Assay. The format is cell-based. The note with it: Homo sapiens, compound incubated 48 hours, read-out: EC50 (NQO1 specific enzyme activity induction). The method, boiled down: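 BEAS-2B cells treated with compound for 48 h at 37 °C, then lysed; NQO1 activity in lysates measured kinetically by MTT reduction at A570 over 30 min. pEC50 from 3-parameter fit of ΔOD/min versus log concentration; lysate also taken for Cell Titer Glo.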

Test [2] has as its target T1, full length Keap1 protein / full length NRF2 protein (Homo sapiens, UniProt Q14145).
T1 construct: full length NRF2 protein and full length Keap1 protein (Keap1 exists a dimer) are used; His
Put plainly: NRF2-Keap1 TR-FRET Low Protein Assay. The format is binding. The note with it: 1.25 nM Keap1 FlagHis and 2.5 nM biotin-NRF2 added. The method, boiled down:
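Flag-tagged full-length Keap1 was preincubated with compound (3-fold series) for 2.25 h at 37 °C in Tris pH 8.0/MgCl2/NaCl/BSA/DTT/CHAPS. Biotin-Avi-NRF2 (added at 2.5 nM) was then bound for 1.25 h at 4 °C. Eu-streptavidin/anti-Flag-APC TR-FRET (665/615 nm) was read after 1 h at RT, and pIC50 came from a four-parameter fit.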
In general terms: Time-resolved FRET reads energy transfer from a long-lived donor to a nearby acceptor.

The source of these data is US10364256B2 (GlaxoSmithKline Intellectual Property Development Limited, priority 2015, dated 2019).

Where two headings read alike, the source gives them in different places.

T1 sequence (Q14145 whole entry): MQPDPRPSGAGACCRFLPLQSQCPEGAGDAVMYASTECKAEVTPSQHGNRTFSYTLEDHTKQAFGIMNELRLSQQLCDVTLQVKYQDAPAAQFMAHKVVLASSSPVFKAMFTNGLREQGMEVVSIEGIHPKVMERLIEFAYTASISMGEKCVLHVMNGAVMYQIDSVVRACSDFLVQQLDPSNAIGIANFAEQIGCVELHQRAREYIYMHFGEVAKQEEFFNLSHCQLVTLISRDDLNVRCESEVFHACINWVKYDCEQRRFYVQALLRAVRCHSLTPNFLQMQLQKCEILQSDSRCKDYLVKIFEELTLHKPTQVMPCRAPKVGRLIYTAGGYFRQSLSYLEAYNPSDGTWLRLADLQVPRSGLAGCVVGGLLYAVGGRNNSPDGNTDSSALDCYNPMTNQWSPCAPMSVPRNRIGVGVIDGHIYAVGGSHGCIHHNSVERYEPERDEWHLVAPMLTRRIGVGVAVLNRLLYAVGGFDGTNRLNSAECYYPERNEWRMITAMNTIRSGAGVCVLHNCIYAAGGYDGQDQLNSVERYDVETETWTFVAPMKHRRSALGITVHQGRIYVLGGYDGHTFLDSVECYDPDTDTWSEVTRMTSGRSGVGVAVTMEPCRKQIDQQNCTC

In the case of `CC(Oc1cccc(-c2cccc(-n3ncc(C(=O)O)c3[C@H]3C[C@@H]3c3cn(C)nn3)c2)c1)C1CCCCC1` (stereo partly drawn) [Example 165, 1-(3′-(1-Cyclohexylethoxy)-[1,1′-biphenyl]-3-yl)-5-((1S,2S)-2-(1-methyl-1H-1,2,3-triazol-4-yl)cyclopropyl)-1H-pyrazole-4-carboxylic acid], the EC50 (in general, the concentration needed to bring the measured effect to its halfway point) in test [1] (BEAS-2B, 48 h) was in the range of 0.001 to 0.01 µM. Besides, the IC50 (in general, the concentration at which inhibition is half-maximal) in test [2] was under 0.01 µM.
Take `Cn1cc(C2CC2c2c(C(=O)O)cnn2-c2cccc(-c3cccc(OCC4CCN(C(=O)OC(C)(C)C)CC4)c3)c2)nn1` (stereo not shown) [Example 167, 1-(3′-((1-(tert-Butoxycarbonyl)piperidin-4-yl)methoxy)-[1,1′-biphenyl]-3-yl)-5-(2-(1-methyl-1H-1,2,3-triazol-4-yl)cyclopropyl)-1H-pyrazole-4-carboxylic acid]: the EC50 in test [1] was in the range of 0.1 to 1 µM. This molecule displayed an IC50 in test [2] of 0.01 to 0.1 µM.
Taken in the same sequence, the figures for `Cn1cc([C@@H]2C[C@H]2c2c(C(=O)O)cnn2-c2cccc(-c3cccc(OCC4CCCCC4)c3)c2)nn1` [Example 171, 1-(3′-(Cyclohexylmethoxy)-[1,1′-biphenyl]-3-yl)-5-((1R,2R)-2-(1-methyl-1H-1,2,3-triazol-4-yl)cyclopropyl)-1H-pyrazole-4-carboxylic acid] were 0.01 to 0.1 µM and 0.01 to 0.1 µM.
The like results for `Cn1cc(C2CC2c2c(C(=O)O)cnn2-c2cccc(-c3cccc(SCC4CCCCC4)c3)c2)nn1` (stereo not shown) [Example 179, 1-(3′-((Cyclohexylmethyl)thio)-[1,1′-biphenyl]-3-yl)-5-(2-(1-methyl-1H-1,2,3-triazol-4-yl)cyclopropyl)-1H-pyrazole-4-carboxylic acid] were, in that order, 0.001 to 0.01 µM and 0.01 to 0.1 µM.
Taken in the same sequence, the figures for `COC(c1cccc(-c2cccc(-n3ncc(C(=O)O)c3C3CC3c3cn(C)nn3)c2)c1)C1CCCC1` (stereo not shown) [Example 183, 1-(3′-(Cyclopentyl(methoxy)methyl)-[1,1′-biphenyl]-3-yl)-5-(2-(1-methyl-1H-1,2,3-triazol-4-yl)cyclopropyl)-1H-pyrazole-4-carboxylic acid] were 0.1 to 1 µM and 0.01 to 0.1 µM.
With `Cc1nn(-c2cccc(-c3cccc(OCC4CCCCC4)c3)c2)c(C2CC2c2cn(C)nn2)c1C(=O)O` (stereo not shown) [Example 188, 1-(3′-(cyclohexylmethoxy)-[1,1′-biphenyl]-3-yl)-3-methyl-5-(2-(1-methyl-1H-1,2,3-triazol-4-yl)cyclopropyl)-1H-pyrazole-4-carboxylic Acid], the EC50 in test [1] was 0.1 to 1 µM. The molecule further displayed an IC50 in test [2] of 1 to 10 µM.
`CCC[C@@H]1CCCCN1C(=O)c1cccc(-c2cccc(-n3ncc(C(=O)O)c3C3CC3c3cn(C)nn3)n2)c1` (stereo partly drawn) [Example 196, 5-(2-(1-Methyl-1H-1,2,3-triazol-4-yl)cyclopropyl)-1-(6-(3-((R)-2-propylpiperidine-1-carbonyl)phenyl)pyridin-2-yl)-1H-pyrazole-4-carboxylic Acid]: in test [1] (BEAS-2B, 48 h), the EC50 lay within 0.1 to 1 µM. Besides, the IC50 in test [2] is under 0.01 µM.
In the case of `CCC[C@@H]1CCCCN1C(=O)c1cncc(-c2cccc(-n3ncc(C(=O)O)c3C3CC3c3cn(C)nn3)c2)c1` (stereo partly drawn) [Example 197, 5-(2-(1-Methyl-1H-1,2,3-triazol-4-yl)cyclopropyl)-1-(3-(5-((R)-2-propylpiperidine-1-carbonyl)pyridin-3-yl)phenyl)-1H-pyrazole-4-carboxylic acid], the EC50 in test [1] (BEAS-2B, 48 h) lay in the range of 1 to 10 µM. For the same molecule, the IC50 in test [2] was under 0.01 µM.
With `CCC[C@@H]1CCCCN1C(=O)c1cccc(-c2cccc(-n3nc(C)c(C(=O)O)c3C3CC3c3cn(C)nn3)c2)c1` (stereo partly drawn) [Example 202, 3-Methyl-5-(2-(1-methyl-1H-1,2,3-triazol-4-yl)cyclopropyl)-1-(3′-((R)-2-propylpiperidine-1-carbonyl)-[1,1′-biphenyl]-3-yl)-1H-pyrazole-4-carboxylic acid], in test [1] (BEAS-2B, 48 h), the EC50 is 0.1 to 1 µM. Moreover, the IC50 in test [2] was under 0.01 µM.
As to `CC1(C)CCc2cnn(-c3cccc(-c4cccc(-n5ncc(C(=O)O)c5C(F)(F)F)n4)c3)c21` [Example 204, 1-(6-(3-(6,6-Dimethyl-5,6-dihydrocyclopenta[c]pyrazol-1(4H)-yl)phenyl)pyridin-2-yl)-5-(trifluoromethyl)-1H-pyrazole-4-carboxylic Acid], the EC50 in test [1] is 0.1 to 1 µM. This molecule also showed an IC50 in test [2] of 0.1 to 1 µM.
In the case of `CCCC1(C)CCc2cnn(-c3cccc(-c4cccc(-n5ncc(C(=O)O)c5C5CC5)c4)c3)c21` (stereo not shown) [Example 205, 5-Cyclopropyl-1-(3′-(6-methyl-6-propyl-5,6-dihydrocyclopenta[c]pyrazol-1(4H)-yl)-[1,1′-biphenyl]-3-yl)-1H-pyrazole-4-carboxylic Acid], in test [1], the EC50 fell in the range of 0.1 to 1 µM. In addition, the IC50 in test [2] fell in the range of 0.01 to 0.1 µM.
Taken in the same sequence, the figures for `CCCCC1CCc2cnn(-c3cccc(-c4cccc(-n5ncc(C(=O)O)c5C5CC5)c4)c3)c21` (stereo not shown) [Example 206, 1-(3′-(6-Butyl-5,6-dihydrocyclopenta[c]pyrazol-1(4H)-yl)-[1,1′-biphenyl]-3-yl)-5-cyclopropyl-1H-pyrazole-4-carboxylic Acid] were 0.1 to 1 µM and 0.1 to 1 µM.
The like results for `CCc1nc(-c2cccc(-c3cccc(-n4ncc(C(=O)O)c4C4CC4)c3)c2)no1` [Example 209, 5-Cyclopropyl-1-(3′-(5-ethyl-1,2,4-oxadiazol-3-yl)-[1,1′-biphenyl]-3-yl)-1H-pyrazole-4-carboxylic Acid] were, in that order, 1 to 10 µM and 1 to 10 µM.
For the molecule `Cc1nnc(-c2cccc(-c3cccc(-n4ncc(C(=O)O)c4C4CC4)c3)c2)o1` [Example 210, 5S-Cyclopropyl-1-(3′-(5-methyl-1,3,4-oxadiazol-2-yl)-[1,1′-biphenyl]-3-yl)-1H-pyrazole-4-carboxylic acid], in test [1], the EC50 lay within 0.1 to 1 µM. Besides, the IC50 in test [2] fell in the range of 10 to 100 µM.
The like results for `Cn1cc(C2CC2c2c(C(=O)O)cnn2-c2cccc(-c3cccc(-n4ncc5c4C(C)(C)CC5)c3)c2)nn1` (stereo not shown) [Example 212, 1-(3′-(6,6-Dimethyl-5,6-dihydrocyclopenta[c]pyrazol-1(4H)-yl)-[1,1′-biphenyl]-3-yl)-5-(2-(1-methyl-1H-1,2,3-triazol-4-yl)cyclopropyl)-1H-pyrazole-4-carboxylic Acid] were, in that order, 0.1 to 1 µM and under 0.01 µM.
Take `CCC[C@@H]1CCCCN1C(=O)c1cccc(-c2cccc(-n3ncc(C(=O)O)c3C3CC3c3cnn(C)c3)c2)c1` (stereo partly drawn) [Example 213, 5-(2-(1-Methyl-1H-pyrazol-4-yl)cyclopropyl)-1-(3′-((R)-2-propylpiperidine-1-carbonyl)-[1,1′-biphenyl]-3-yl)-1H-pyrazole-4-carboxylic Acid]: the EC50 in test [1] (BEAS-2B, 48 h) was in the range of 0.1 to 1 µM. The same molecule showed an IC50 in test [2] of under 0.01 µM.
Regarding `CCC[C@@H]1CCCCN1C(=O)c1cccc(-c2cccc(-n3ncc(C(=O)O)c3C3CC3c3cnn(C)c3)c2)c1F` (stereo partly drawn) [Example 214, 1-(2′-Fluoro-3′-((R)-2-propylpiperidine-1-carbonyl)-[1,1′-biphenyl]-3-yl)-5-(2-(1-methyl-1H-pyrazol-4-yl)cyclopropyl)-1H-pyrazole-4-carboxylic Acid], in test [1] (BEAS-2B, 48 h), the EC50 was in the range of 0.1 to 1 µM. In test [2], this molecule had an IC50 of under 0.01 µM.
Consider `Cn1cc(C2CC2c2c(C(=O)O)cnn2-c2cccc(-c3cccc(C(=O)CC4CCCCC4)c3)c2)nn1` (stereo not shown) [Example 215, 1-(3′-(2-Cyclohexylacetyl)-[1,1′-biphenyl]-3-yl)-5-(2-(1-methyl-1H-1,2,3-triazol-4-yl)cyclopropyl)-1H-pyrazole-4-carboxylic Acid], for which the concentration for a half-maximal effect (EC50) in test [1] lay in the range of 0.1 to 1 µM. The molecule also registered an IC50 in test [2] of 0.01 to 0.1 µM.
Turning to `COC(CC1CCCCC1)c1cccc(-c2cccc(-n3ncc(C(=O)O)c3C3CC3c3cn(C)nn3)c2)c1` (stereo not shown) [Example 216, 1-(3′-(2-Cyclohexyl-1-methoxyethyl)-[1,1′-biphenyl]-3-yl)-5-(2-(1-methyl-1H-1,2,3-triazol-4-yl)cyclopropyl)-1H-pyrazole-4-carboxylic Acid], in test [1], the EC50 lay within 0.01 to 0.1 µM. In test [2], this molecule returned an IC50 of 0.01 to 0.1 µM.
Turning to `Cn1cc(C2CC2c2c(C(=O)O)cnn2-c2cccc(-c3cccc(C(O)CC4CCCCC4)c3)c2)nn1` (stereo not shown) [Example 217, 1-(3′-(2-Cyclohexyl-1-hydroxyethyl)-[1,1′-biphenyl]-3-yl)-5-(2-(1-methyl-1H-1,2,3-triazol-4-yl)cyclopropyl)-1H-pyrazole-4-carboxylic acid], the EC50 in test [1] lay in the range of 0.1 to 1 µM. For the same molecule, the IC50 in test [2] was 0.01 to 0.1 µM.
As for `CC(CC1CCCCC1)Oc1cccc(-c2cccc(-n3ncc(C(=O)O)c3C3CC3c3cn(C)nn3)c2)c1` (stereo not shown) [Example 218, 1-(3′-((1-Cyclohexylpropan-2-yl)oxy)-[1,1′-biphenyl]-3-yl)-5-(2-(1-methyl-1H-1,2,3-triazol-4-yl)cyclopropyl)-1H-pyrazole-4-carboxylic Acid], in test [1], the EC50 lay in the range of 0.01 to 0.1 µM. The IC50 in test [2] is 0.01 to 0.1 µM.
As to `CC(Oc1cccc(-c2cccc(-n3ncc(C(=O)O)c3C3CC3c3cn(C)nn3)c2)c1)C1CCCCC1` (stereo not shown) [Example 219, 1-(3′-(1-Cyclohexylethoxy)-[1,1′-biphenyl]-3-yl)-5-(2-(1-methyl-1H-1,2,3-triazol-4-yl)cyclopropyl)-1H-pyrazole-4-carboxylic acid], the EC50 in test [1] (BEAS-2B, 48 h) was 0.01 to 0.1 µM. This molecule returned an IC50 in test [2] of 0.01 to 0.1 µM.
Turning to `Cn1cc(C2CC2c2c(C(=O)O)cnn2-c2cccc(-c3cccc(OCc4ccccc4)c3)c2)nn1` (stereo not shown) [Example 221], the EC50 in test [1] was 0.1 to 1 µM. The molecule further gave an IC50 in test [2] of 0.1 to 1 µM.
